Experimental data published in PMC12155096 (International Journal of Molecular Sciences, 2025).
Where a name gives a salt, the structure may show the parent alone. Read-outs that look alike come from different tables or passages of the source.

Experiments:
human CYP1A2 [1] = biological target: T1, human CYP1A2 (Homo sapiens, UniProt P05177); assay: biochemical
T1 sequence (P05177 1-516): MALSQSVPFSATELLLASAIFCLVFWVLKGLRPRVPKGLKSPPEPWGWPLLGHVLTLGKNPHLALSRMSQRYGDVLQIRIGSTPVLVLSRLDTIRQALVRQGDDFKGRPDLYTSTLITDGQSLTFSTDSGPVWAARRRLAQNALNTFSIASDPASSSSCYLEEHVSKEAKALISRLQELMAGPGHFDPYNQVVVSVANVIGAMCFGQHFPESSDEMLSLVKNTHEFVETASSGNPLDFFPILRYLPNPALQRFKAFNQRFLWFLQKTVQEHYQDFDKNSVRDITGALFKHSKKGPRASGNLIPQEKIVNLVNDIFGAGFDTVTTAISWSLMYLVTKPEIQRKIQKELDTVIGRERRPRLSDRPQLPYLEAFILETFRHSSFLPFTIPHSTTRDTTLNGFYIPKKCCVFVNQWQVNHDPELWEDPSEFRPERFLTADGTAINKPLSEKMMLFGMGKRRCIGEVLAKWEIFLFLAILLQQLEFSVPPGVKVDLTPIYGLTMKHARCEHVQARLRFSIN

CYP3A4 = CYP3A4 (Homo sapiens, UniProt P08684)
Chain of CYP3A4 (P08684 whole entry): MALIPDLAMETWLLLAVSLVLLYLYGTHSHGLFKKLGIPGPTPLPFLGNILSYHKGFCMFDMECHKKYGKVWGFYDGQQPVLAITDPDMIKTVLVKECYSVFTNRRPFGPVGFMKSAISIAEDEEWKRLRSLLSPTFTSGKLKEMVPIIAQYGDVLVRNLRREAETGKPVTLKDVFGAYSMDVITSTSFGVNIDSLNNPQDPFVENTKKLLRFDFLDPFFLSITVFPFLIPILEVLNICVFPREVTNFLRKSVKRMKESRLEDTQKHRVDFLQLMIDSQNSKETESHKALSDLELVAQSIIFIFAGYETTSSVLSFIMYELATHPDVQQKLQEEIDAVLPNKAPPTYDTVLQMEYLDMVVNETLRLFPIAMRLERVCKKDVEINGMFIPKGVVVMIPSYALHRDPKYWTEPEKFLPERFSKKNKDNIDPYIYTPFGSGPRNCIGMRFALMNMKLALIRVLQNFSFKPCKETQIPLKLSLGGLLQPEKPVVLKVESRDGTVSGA

human CYP2C19 [2] = biological target: T2, human CYP2C19 (Homo sapiens, UniProt P33261); assay: biochemical
T2 sequence (P33261 whole entry): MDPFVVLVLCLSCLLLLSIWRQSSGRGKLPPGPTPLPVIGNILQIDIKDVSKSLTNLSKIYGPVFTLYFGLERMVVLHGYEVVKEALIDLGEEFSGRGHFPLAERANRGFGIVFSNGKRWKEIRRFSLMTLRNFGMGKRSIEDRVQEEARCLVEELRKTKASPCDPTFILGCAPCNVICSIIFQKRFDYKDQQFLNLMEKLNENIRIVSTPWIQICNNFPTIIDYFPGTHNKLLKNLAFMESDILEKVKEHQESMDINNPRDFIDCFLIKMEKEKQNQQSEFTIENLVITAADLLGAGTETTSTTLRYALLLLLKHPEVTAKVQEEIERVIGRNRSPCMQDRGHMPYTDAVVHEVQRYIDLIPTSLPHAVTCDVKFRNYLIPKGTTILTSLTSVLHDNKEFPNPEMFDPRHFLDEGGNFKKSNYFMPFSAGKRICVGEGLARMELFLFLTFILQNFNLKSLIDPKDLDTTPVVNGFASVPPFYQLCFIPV

[3] = biological target: Photinus pyralis (firefly) luciferase (Photinus pyralis, UniProt P08659); assay: biochemical; type: biochemical
Chain of Photinus pyralis (firefly) luciferase (P08659 whole entry): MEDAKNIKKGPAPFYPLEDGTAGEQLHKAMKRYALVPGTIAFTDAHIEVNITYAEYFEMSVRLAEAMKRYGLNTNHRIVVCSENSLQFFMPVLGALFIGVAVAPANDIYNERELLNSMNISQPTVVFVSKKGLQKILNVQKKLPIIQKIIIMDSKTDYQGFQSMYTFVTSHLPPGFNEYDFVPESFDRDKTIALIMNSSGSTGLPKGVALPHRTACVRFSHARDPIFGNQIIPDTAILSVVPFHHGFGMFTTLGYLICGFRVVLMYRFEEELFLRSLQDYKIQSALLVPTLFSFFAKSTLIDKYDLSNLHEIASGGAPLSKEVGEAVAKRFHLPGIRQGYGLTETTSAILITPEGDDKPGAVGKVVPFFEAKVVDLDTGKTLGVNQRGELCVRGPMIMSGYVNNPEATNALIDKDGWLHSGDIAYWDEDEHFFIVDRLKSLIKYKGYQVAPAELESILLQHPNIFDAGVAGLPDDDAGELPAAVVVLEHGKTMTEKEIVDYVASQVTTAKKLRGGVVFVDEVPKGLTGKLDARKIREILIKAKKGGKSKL

human CYP2C9 [4] = biological target: T3, human CYP2C9 (Homo sapiens, UniProt P11712)
T3 sequence (P11712 whole entry): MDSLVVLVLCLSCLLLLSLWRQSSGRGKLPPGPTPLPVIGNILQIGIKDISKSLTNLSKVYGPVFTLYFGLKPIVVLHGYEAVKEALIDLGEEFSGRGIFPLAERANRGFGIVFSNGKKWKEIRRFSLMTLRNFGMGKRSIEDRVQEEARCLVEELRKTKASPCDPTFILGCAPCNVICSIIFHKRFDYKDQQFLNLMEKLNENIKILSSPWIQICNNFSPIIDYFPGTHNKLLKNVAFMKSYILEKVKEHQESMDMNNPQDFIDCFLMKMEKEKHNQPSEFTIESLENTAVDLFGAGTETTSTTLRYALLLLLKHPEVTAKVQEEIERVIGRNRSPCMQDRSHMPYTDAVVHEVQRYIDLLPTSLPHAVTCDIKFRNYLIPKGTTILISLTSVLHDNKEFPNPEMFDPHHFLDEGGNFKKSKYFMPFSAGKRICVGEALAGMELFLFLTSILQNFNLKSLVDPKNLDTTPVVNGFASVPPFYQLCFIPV

human CYP2D6 [5] = biological target: T4, human CYP2D6 (Homo sapiens, UniProt P10635); assay: biochemical
T4 sequence (P10635 whole entry): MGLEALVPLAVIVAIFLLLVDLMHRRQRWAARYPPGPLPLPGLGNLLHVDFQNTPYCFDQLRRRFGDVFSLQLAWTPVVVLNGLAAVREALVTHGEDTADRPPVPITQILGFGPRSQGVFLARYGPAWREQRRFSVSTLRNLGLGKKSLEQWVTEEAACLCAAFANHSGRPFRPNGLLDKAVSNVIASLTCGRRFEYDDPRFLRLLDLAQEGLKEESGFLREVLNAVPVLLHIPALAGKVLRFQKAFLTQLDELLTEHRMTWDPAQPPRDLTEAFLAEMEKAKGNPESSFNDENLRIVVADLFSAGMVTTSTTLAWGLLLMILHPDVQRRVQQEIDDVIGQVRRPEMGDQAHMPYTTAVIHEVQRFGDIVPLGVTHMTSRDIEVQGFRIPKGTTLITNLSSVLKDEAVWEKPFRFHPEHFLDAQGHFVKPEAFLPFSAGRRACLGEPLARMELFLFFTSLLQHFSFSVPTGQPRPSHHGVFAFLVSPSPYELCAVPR

human CYP2C9 [6] = biological target: T3, human CYP2C9; assay: biochemical
human CYP2C19 [7] = biological target: T2, human CYP2C19; conditions: for CYP2C19 Efficacy (in parenthesis): human
human CYP1A2 [8] = biological target: T1, human CYP1A2
human CYP2D6 [9] = biological target: T4, human CYP2D6; conditions: human
[10] = CYP2C9 IC50 (half-maximal inhibitory concentration)
[11] = CYP2C19 IC50 (half-maximal inhibitory concentration)
[12] = CYP2D6 IC50 (half-maximal inhibitory concentration)
[13] = CYP1A2 IC50 (half-maximal inhibitory concentration)

| Structure (SMILES) | IC50 (human CYP1A2 [1]; CYP1A2 IC50) [µM] | CYP3A4 IC50 (CYP3A4) | IC50 (human CYP2D6 [5]; CYP2D6 IC50) [µM] | Luciferase IC50 [3] | IC50 (human CYP2C19 [2]; [11]) [µM] | Luciferase IC50 (half-maximal inhibitory concentration) [3] | IC50 (human CYP2D6 [5]; [12]) [µM] | IC50 (human CYP1A2 [1]; [13]) [µM] | CYP3A4 IC50 (half-maximal inhibitory concentration) (CYP3A4) | other results |
| --- | --- | --- | --- | --- | --- | --- | --- | --- | --- | --- |
| c1ccc2c(c1)-c1cccc3c1c-2cc1ccccc13 [Benzo(b)fluoranthene] | 0.69 | Inactive | 30 | – | – | – | – | – | – | IC50 (human CYP2C19 [2]; CYP2C19 IC50): 10.5 µM; IC50 [3]: 5.37 µM; CYP2C9 IC50 (human CYP2C9 [4]): Inactive |
| CS(=O)(=O)c1ccc(-c2cn3ccccc3n2)cc1 [Zolimidine] | 0.7 | Inactive | 24.2 | – | – | – | – | – | – | IC50 (human CYP2C9 [6]; CYP2C9 IC50): 24.1 µM; IC50 (human CYP2C19 [2]; CYP2C19 IC50): 25.7 µM; IC50 [3]: 6.95 µM |
| Oc1cc(Cl)ccc1Oc1ccc(Cl)cc1Cl [Triclosan] | 20.8 | Inactive | 32.8 | Inactive | – | – | – | – | – | IC50 (human CYP2C19 [2]; CYP2C19 IC50): 0.71 µM |
| Clc1ccccc1C(c1ccccc1)(c1ccccc1)n1ccnc1 [Clotrimazole] | – | – | – | – | 3.88 | Inactive | 46.2 | – | – | IC50 (human CYP2C9 [6]; [10]): 1.14 µM; CYP3A4 Efficacy (in parenthesis) (CYP3A4): 0.02 ± 0.01 (-96 ± 6) %; CYP2C19 Efficacy (in parenthesis) (human CYP2C19 [7]): 3.88 ± 0.66 (-140 ± 14) %; CYP1A2 Efficacy (in parenthesis) (human CYP1A2 [8]; human): 9.92 ± 2.76 (-108 ± 12) %; CYP2C9 Efficacy (in parenthesis) (human CYP2C9 [4]; human): 1.14 ± 0.44 (-107 ± 6) %; CYP2D6 Efficacy (in parenthesis) (human CYP2D6 [9]): 46.25 ± 14.89 (-110 ± 18) % |
| CCN(CC)CCNc1ccc(CO)c2sc3ccccc3c(=O)c12 [Hycanthone] | 0.58 | Inactive | 3.77 | Inactive | – | – | – | – | – | CYP2C19 IC50 (human CYP2C19 [7]): Inactive; CYP2C9 IC50 (human CYP2C9 [4]): Inactive |
| CCc1ccc(C2CCNCC2)cc1 [Enefexine] | – | Inactive | – | Inactive | – | – | – | – | – | IC50 (human CYP1A2 [1]): 23.2 µM; CYP2C19 IC50 (human CYP2C19 [7]): Inactive; CYP2C9 IC50 (human CYP2C9 [4]): Inactive; IC50 (human CYP2D6 [5]): 0.42 µM |
| COc1ccc(-c2coc3cc(O)ccc3c2=O)cc1 [Formononetin] | – | – | – | – | 62.3 | – | 51.6 | 14.4 | Inactive | IC50 (human CYP2C9 [6]; [10]): 0.29 µM; IC50 [3]: 3.18 µM |
| Cc1nc2n(c(=O)c1CCN1CCC(C(=O)c3ccc(F)cc3)CC1)CCS2 [Setoperone] | – | Inactive | – | Inactive | – | – | – | – | – | IC50 (human CYP1A2 [1]): 32.3 ± 4.12 µM; IC50 (human CYP2C9 [6]): 27.2 ± 16.6 µM; CYP2C19 IC50 (human CYP2C19 [7]): Inactive; IC50 (human CYP2D6 [5]): 0.48 ± 0.08 µM |
| CCN(CC)CCCC(C)Nc1c2ccc(Cl)cc2nc2ccc(OC)cc12 (stereo not drawn) [Quinacrine] | 2.2 | Inactive | 0.18 | Inactive | – | – | – | – | – | CYP2C19 IC50 (human CYP2C19 [7]): Inactive; CYP2C9 IC50 (human CYP2C9 [4]): Inactive |
| c1ccc2c(c1)c1cccc3ccc4cccc2c4c31 [Benzo(e)pyrene] | 0.1 | Inactive | 55.4 | Inactive | – | – | – | – | – | CYP2C19 IC50 (human CYP2C19 [7]): Inactive; CYP2C9 IC50 (human CYP2C9 [4]): Inactive |
| CN(Cc1ccc(C(C)(C)C)cc1)Cc1cccc2ccccc12 [Butenafine] | 24.6 | Inactive | 0.39 | Inactive | – | – | – | – | – | IC50 (human CYP2C9 [6]; CYP2C9 IC50): 16.3 µM; IC50 (human CYP2C19 [2]; CYP2C19 IC50): 9.91 µM |
| CC(CN1c2ccccc2Sc2ccccc21)N(C)C (stereo not drawn) [Promethazine hydrochloride] | – | – | – | – | 14.5 | Inactive | 0.89 | 2.23 | Inactive | – |
| c1ccc2c(c1)-c1cccc3cccc-2c13 [Fluoranthene] | 0.73 | Inactive | 21.5 | – | – | – | – | – | – | IC50 (human CYP2C9 [6]): 67.8 µM; IC50 (human CYP2C19 [2]; CYP2C19 IC50): 50.2 µM; IC50 [3]: 62.1 µM |
| CN(Cc1cc(Br)cc(Br)c1N)C1CCCCC1 [Bromhexine hydrochloride] | – | Inactive | – | Inactive | – | – | – | – | – | IC50 (human CYP1A2 [1]): 28.1 ± 9.38 µM; IC50 (human CYP2C9 [6]): 19.5 ± 6.96 µM; IC50 (human CYP2C19 [2]): 4.36 µM; IC50 (human CYP2D6 [5]): 0.01 ± 0.01 µM |
| CN1[C@@H]2CC[C@H]1C[C@@H](OC(=O)c1cc(Cl)cc(Cl)c1)C2 [MDL 72222] | – | – | – | – | – | Inactive | 0.05 | 14.6 | Inactive | CYP2C19 IC50 (half-maximal inhibitory concentration) (human CYP2C19 [7]): Inactive; CYP2C9 IC50 (half-maximal inhibitory concentration) (human CYP2C9 [4]): Inactive |
| Cc1ccc(Cl)c(OCC(O)CNC(C)(C)C)c1 (stereo not drawn) [Bupranolol] | – | – | – | – | – | Inactive | 0.98 | 15.5 | Inactive | CYP2C19 IC50 (half-maximal inhibitory concentration) (human CYP2C19 [7]): Inactive; CYP2C9 IC50 (half-maximal inhibitory concentration) (human CYP2C9 [4]): Inactive |
| CC(COc1ccccc1)N(CCCl)Cc1ccccc1 (stereo not drawn) [Phenoxybenzamine hydrochloride] | – | – | – | – | 2.44 | Inactive | 0.38 | 65.8 | Inactive | IC50 (human CYP2C9 [6]; [10]): 22.8 µM |
| CCN(CC)c1c([N+](=O)[O-])cc(C(F)(F)F)c(N)c1[N+](=O)[O-] [Dinitramine] | – | – | – | – | 19.3 | Inactive | 55.8 | 0.3 | Inactive | IC50 (human CYP2C9 [6]; [10]): 74.5 µM |
| c1ccc2cc3c(ccc4ccccc43)cc2c1 [Benz(a)anthracene] | 0.86 | Inactive | 50.5 | – | – | – | – | – | – | IC50 (human CYP2C9 [6]; CYP2C9 IC50): 36.4 µM; IC50 (human CYP2C19 [2]; CYP2C19 IC50): 15.9 µM; IC50 [3]: 6.12 µM |
| CC(C(O)c1ccccc1)N(C)C/C=C/c1ccccc1 (stereo not drawn) [Cinnamedrine] | – | – | – | – | – | Inactive | – | – | Inactive | IC50 (human CYP1A2 [1]): 16.4 µM; IC50 (human CYP2C9 [6]): 16.1 µM; IC50 (human CYP2C19 [2]): 1.46 µM; IC50 (human CYP2D6 [5]): 0.11 µM |
| CN1CC2c3ccccc3Oc3ccc(Cl)cc3C2C1 (stereo not drawn) [Asenapine] | 7.55 | Inactive | 0.09 | Inactive | – | – | – | – | – | CYP2C19 IC50 (human CYP2C19 [7]): Inactive; CYP2C9 IC50 (human CYP2C9 [4]): Inactive |
| CN(C)CCCSc1ccccc1NC(=O)/C=C/c1ccccc1 [Cinanserin] | – | – | – | – | 29.6 | Inactive | 0.52 | – | Inactive | CYP2C19 Efficacy (in parenthesis) (human CYP2C19 [7]): 29.59 ± 16.13 (-78 ± 38) %; CYP1A2 IC50 (half-maximal inhibitory concentration) (human CYP1A2 [8]): Inactive; CYP2C9 IC50 (half-maximal inhibitory concentration) (human CYP2C9 [4]): Inactive; CYP2D6 Efficacy (in parenthesis) (human CYP2D6 [9]): 0.52 ± 0.22 (-96 ± 14) % |
| CCCCN(CCCC)CCCOC(=O)c1ccc(N)cc1 [Butacaine] | – | – | – | – | 38.9 | Inactive | 0.03 | 22.4 | Inactive | IC50 (human CYP2C9 [6]; [10]): 26.4 µM |
